Experimental data published in US6485941B1, “Inhibition of the carboxyltransferase component of acetyl-CoA carboxylase, and the use of such inhibition in anti-cancer and anti-lipogenic therapies” (Board of Supervisors of Louisiana State University and …, priority 2002, dated 2002).

What was measured:
[1] = molecular target: T1, murine acetyl-CoA carboxylase (Mus musculus, UniProt Q5SWU9); assay: Acetyl-CoA carboxylase activity in cell-free extracts of pre-adipocytes, compound added to extract; assay type: biochemical
T1 construct: endogenous in cells; host or cells: murine 3T3-L1 pre-adipocytes (cytosolic extract)
Method: (§1) The above procedure was modified to prepare extracts for enzymatic analysis. The non-denaturing buffer in that case contained 150 mM KCl instead of NaCl, and there was no Triton X-100, Nonidet P-40, nor any protease or phosphatase inhibitors in the buffer. The cell monolayers were scraped into this buffer, and were homogenized with 16 strokes in a Dounce homogenizer. The homogenates were centrifuged at 10,000 g for 5 minutes, and the supernatants were saved as cytosolic extract, quantitated, and used to assay acetyl-CoA carboxylase activity.
The activity of acetyl-CoA carboxylase from 3T3-L1 cell lysates was determined in a fixed-time assay using HPLC. HPLC is not normally used in this field, because cell lysates are mixtures of such a large number of different components; it would be more conventional to use an assay employing radioactivity. […] This assay will be useful in monitoring the progress and reaction of patients who are administered treatment in accordance with this invention.
(§2) Assays were performed by measuring the loss of acetyl-CoA, or the production of malonyl-CoA, at 5 minute intervals for 20 minutes, using reverse-phase HPLC. […] Rates were calculated by linear regression analysis of malonyl-CoA concentration as a function of time. […] Following termination of the reaction, the samples were centrifuged (3 min, 10,000 g) and then analyzed by HPLC. […]

[2] = molecular target: T2, carboxyltransferase component of E. coli acetyl-CoA carboxylase (Escherichia coli, UniProt P0A9Q5+P0ABD5); assay: Carboxyltransferase inhibition, assayed in the reverse direction with coupled spectrophotometric detection; assay type: biochemical
T2 construct: made in house; host or cells: E. coli overexpression strain (Blanchard et al. 1998; G. Waldrop, LSU)
T2 sequence (P0ABD5 1-319): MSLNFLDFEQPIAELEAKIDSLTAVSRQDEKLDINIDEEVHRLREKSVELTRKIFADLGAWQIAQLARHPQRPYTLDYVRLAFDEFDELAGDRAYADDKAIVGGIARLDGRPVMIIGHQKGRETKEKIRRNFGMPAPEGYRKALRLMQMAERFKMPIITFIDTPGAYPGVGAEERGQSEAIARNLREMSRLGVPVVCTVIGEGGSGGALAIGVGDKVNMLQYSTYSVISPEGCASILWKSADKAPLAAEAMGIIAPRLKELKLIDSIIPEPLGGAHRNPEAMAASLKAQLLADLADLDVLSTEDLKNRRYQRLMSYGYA
T2 sequence (P0A9Q5 1-304): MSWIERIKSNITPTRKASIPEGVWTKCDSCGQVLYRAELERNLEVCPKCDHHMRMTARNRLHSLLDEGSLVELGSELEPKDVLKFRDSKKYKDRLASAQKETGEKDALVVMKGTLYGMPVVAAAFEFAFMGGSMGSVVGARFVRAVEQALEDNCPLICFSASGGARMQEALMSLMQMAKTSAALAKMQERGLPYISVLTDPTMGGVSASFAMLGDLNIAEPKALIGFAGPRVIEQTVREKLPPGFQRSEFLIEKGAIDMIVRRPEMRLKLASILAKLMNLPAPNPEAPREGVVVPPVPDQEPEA
Method: Carboxyltransferase was purified from a strain of E. coli that overexpresses the genes encoding the α and β subunits of the enzyme. C. Blanchard et al., J. Biol. Chem. 273, 19140-19145 (1998). (E. coli strain available on request from G. Waldrop, Department of Biological Sciences, Louisiana State University, Baton Rouge, La.) The published procedure was modified slightly. Bacteria were grown to saturation at 37° C. in 1 L of LB medium in 2 L flasks, and were then induced with 1 g of lactose and incubated without shaking at 25° C. for 24 h. The concentration of carboxyltransferase was determined by the method of M. Bradford, Anal. Biochem. 72, 248-254 (1976) using bovine serum albumin as a standard.
(§3) Carboxyltransferase was assayed in the reverse direction: the production of acetyl-CoA was detected by using the coupling enzymes malate dehydrogenase and citrate synthase, and the reduction of NAD^+ was measured spectrophotometrically by the method of C. Blanchard et al., J. Biol. Chem. 273, 19140-19145 (1998); and R. Guchhait et al., Methods Enzymol. 35, 32-37 (1975).
In Equations [1] and [2], v is the initial velocity, Vm is the maximal velocity, A is the substrate concentration, I is the concentration of inhibitor, Km is the Michaelis constant, Kis is the slope inhibition constant, and Kii is the intercept inhibition constant.
v=VmA/(Km(1+I/Kis)+A(1+I/Kii))
The activity of carboxyltransferase was measured in the reverse direction using malonyl-CoA and biocytin as substrates.

citrate synthase = assay: Coupling enzyme control (NAD+ reduction after addition of acetyl-CoA); assay type: biochemical; conditions: 0.6 mM compound
Method: as §3
(§4) The bisubstrate analog had previously been observed not to inhibit the activity of either of these coupling enzymes at 0.6 mM, a value three times higher than the highest concentration used in the inhibition studies.

malate dehydrogenase = assay: as above; assay type: biochemical; conditions: 0.6 mM compound
Method: as §3, §4

3T3-L1 pre-adipocytes = assay: 3T3-L1 adipocyte differentiation (Western blot of transcription factors, Oil Red O staining); assay type: cell-based, murine
Method: Murine 3T3-L1 pre-adipocytes (a kind gift from Howard Green, Harvard University, Cambridge, Mass.) were plated and grown to 2 days post-confluence in DMEM supplemented with 10% bovine serum. Medium was changed every 48 hours. Cells were induced to differentiate into adipocytes by changing the medium to DMEM supplemented with 10% fetal bovine serum (FBS), 0.5 mM 3-isobutyl-1-methylxanthine (MIX) (Sigma), 1 μM dexamethasone (DEX) (Sigma), and 1.7 μM insulin (Sigma). After 48 hours this medium was replaced with DMEM supplemented with 10% FBS, and the cells were maintained in this medium until they were used in experiments. Compound 2 was dissolved in DMSO and added to the cell culture media at a 1:1000 dilution for experiments. Vehicle additions were also conducted for each experiment as controls.
Monolayers of 3T3-L1 adipocytes were rinsed with phosphate-buffered saline (PBS) and then harvested in a non-denaturing buffer containing 150 mM NaCl, 10 mM Tris, pH 7.4, 1 mM EGTA, 1 mM EDTA, 1% Triton-X 100, 0.5% Nonidet P-40 detergent (Sigma), 1 μM PMSF (phenylmethylsulfonyl fluoride protease inhibitor, Sigma), 1 μM pepstatin (Sigma), 50 trypsin inhibitory milliunits of aprotinin (Sigma), 10 μM leupeptin (Sigma), and 2 mM sodium vanadate (Fisher Chemical, Fair Lawn, […]) for Western blot analysis. Samples were extracted for 30 minutes on ice and centrifuged at 10,000 g at 4° C. for 15 minutes. Supernatants containing whole cell extracts were analyzed for protein content using a BCA kit (Pierce) according to the manufacturer's instructions.
Proteins were separated in 5%, 7.5%, or 12% polyacrylamide (National Diagnostics, […].) gel containing sodium dodecyl sulfate (SDS) following the procedure of U. Laemmli, Nature 227, 680-685 (1970). Proteins were then transferred to nitrocellulose (BioRad, Atlanta, Ga.) in 25 mM Tris, 192 mM glycine, and 20% methanol. Following transfer, the membrane was blocked in 4% milk (non-fat, dried milk reconstituted in water at a 4% concentration (w/v)) for 1 hour at room temperature. Results were visualized with horseradish peroxidase (HRP)-conjugated secondary antibodies (Sigma) and enhanced chemiluminescence (Pierce).
The murine 3T3-L1 pre-adipocyte cell line was used to examine the effects of Compound 2 on adipocyte differentiation. The 3T3-L1 cell line can be induced to differentiate in culture from fibroblasts, or pre-adipocytes, into cells with the morphological and biochemical properties of adipocytes. […] For example, these cells accumulate lipids, respond to insulin, and secrete leptin. The 3T3-L1 pre-adipocytes were first grown to a confluent monolayer. At two days post-confluence, the cells were exposed to a “differentiation cocktail” (FBS, MIX, DEX, and insulin) for 48 hours, and the cells were then maintained in 10% FBS in DMEM in the presence or absence of various doses of Compound 2. A vehicle addition of DMSO was also performed as a control. Compound 2 or DMSO was added in a 1-to-1000 dilution to the cell culture medium every 24 hours. One week after treatment with the differentiation cocktail, whole cell extracts were prepared, and cells were stained with Oil Red O to assess lipid accumulation.
The differentiation of pre-adipocytes into adipocytes has been attributed, in part, to increased expression of several transcription factors, including PPARγ and STATs 1, 5A, and 5B. To observe the differentiation of pre-adipocytes into adipocytes, the expression of these transcription factors was examined by Western blot analysis (data not shown). Adipogenesis was also assessed by examining lipid accumulation, as judged by Oil Red O staining (data not shown).
Whole cell extracts were prepared one week after the induction of differentiation in the presence of 0, 1, 2, 4, 8, or 17 μM doses of Compound 2, or treatment with DMSO (vehicle), with treatments in each case repeated every 24 hours. […]

[3] = test system: breast cancer cell line MCF7; assay: MCF7 cellular proliferation (counting viable cells as a function of time); assay type: cell-based; conditions: preliminary data; number of viable cells as a function of time
From the text: Cancer cells also typically have high levels of fatty acid synthesis. Various inhibitors of fatty acid synthesis are currently in clinical trials for the treatment of breast cancers. Since acetyl-CoA carboxylase—not fatty acid synthase—is the rate-limiting enzyme in fat synthesis, the inhibition of acetyl-CoA carboxylase with the bisubstrate analog should be at least as effective in treating cancers as fatty acid synthesis inhibitors, if not more so.

acetyl-CoA carboxylase = molecular target: T3, acetyl-CoA carboxylase (Mus musculus, UniProt Q5SWU9); assay: Acetyl-CoA carboxylase activity in lysates of treated pre-adipocytes (HPLC fixed-time assay); assay type: cell-based, murine; conditions: pre-adipocytes treated with 10 μM for four hours; DMSO control 1.40 nmol/min-mg
T3 construct: endogenous in cells; host or cells: murine 3T3-L1 pre-adipocytes (cytosolic extract)
Method: as §1
The activity of acetyl-CoA carboxylase from 3T3-L1 cell lysates was determined in a fixed-time assay using HPLC. HPLC is not normally used in this field, because cell lysates are mixtures of such a large number of different components; it would be more conventional to use an assay employing radioactivity. […]
as §2
We also examined whether there was a concomitant decrease in the activity of acetyl-CoA carboxylase. […] Acetyl-CoA carboxylase activity was measured by analytical reverse phase HPLC. […]

Row | Compound | effect on acetyl-CoA carboxylase activity in cell-free extracts [1] | Ki [2] | binding energy of the inhibitor relative to the sum of binding energies of the two substrates (times less) [2] | factor by which the product of the substrate dissociation constants exceeds the inhibition constant ([2]; Km of malonyl-CoA and biocytin used as dissociation constants) | inhibition pattern with malonyl-CoA as the variable substrate ([2]; biocytin held constant at 6.0 mM) | inhibition pattern with biocytin as the variable substrate ([2]; malonyl-CoA held constant at 0.1 mM) | inhibition of coupling enzyme citrate synthase (citrate synthase) | inhibition of coupling enzyme malate dehydrogenase (malate dehydrogenase) | Km ([2]; substrate of carboxyltransferase, reverse direction) | adipocyte differentiation of 3T3-L1 cells (3T3-L1 pre-adipocytes; 0, 1, 2, 4, 8 or 17 μM, repeated every 24 hours, one week) | induction of PPARγ expression (Western blotting) (3T3-L1 pre-adipocytes; 17 μM or 8 μM) | lipid accumulation (Oil Red O staining) (3T3-L1 pre-adipocytes; 17 μM or 8 μM) | levels of STAT3 (3T3-L1 pre-adipocytes; Western blot) | expression of STATs 1 and 5A (3T3-L1 pre-adipocytes; Western blot, during induced differentiation) | reversibility of inhibition of differentiation (3T3-L1 pre-adipocytes; compound not re-added at 24 hour intervals after initial treatment) | cellular proliferation of MCF7 [3] | activity of acetyl-CoA carboxylase from treated cells (acetyl-CoA carboxylase)
1 | CC(C)(COP(=O)(O)OP(=O)(O)OCC1OC(n2cnc3c(N)ncnc32)C(O)C1OP(=O)(O)O)C(O)C(=O)NCCC(=O)NCCSCC(=O)N1C(=O)NC2C(CCCCC(=O)OCc3ccccc3)SCC21 (stereo not drawn) [Compound 1] | inhibited murine acetyl-CoA carboxylase activity | 23 ± 2 µM | about 1.3 | about 35 | competitive inhibition | noncompetitive inhibition | No decrease in activity | No decrease in activity |  |  |  |  |  |  |  |  | 
2 | N[C@@H](CCCCNC(=O)CCCC[C@@H]1SC[C@@H]2NC(=O)N[C@@H]21)C(=O)O [biocytin] |  |  |  |  |  |  |  |  | 8 mM |  |  |  |  |  |  |  | 
3 | phenylmethyl 5-(6,8-diaza-6-(2-X-acetyl)-7-oxo-3-thiabicyclo[3.3.0]oct-2-yl)pentanoate [Compound 2] | had no effect |  |  |  |  |  |  |  |  | inhibited adipocyte differentiation of 3T3-L1 cells in a dose-dependent manner | blocked the induction of PPARγ expression | blocked lipid accumulation | unaffected | inhibited in a dose-dependent manner | reversible | inhibited cellular proliferation in that cell line in a dose-dependent manner | 0.30 nmol malonyl-CoA/min-mg
